These results are taken from US20070059385A1, “Safe pharmaceutical composition for treating and preventing cancer and method of use” (priority 2005, published 2007).

This data set is described as follows: Metabolism (organ and blood radioactivity) of [^3H]-HHT in P388 mice. The following applies: blood. The class given is in vivo. As to the method: Animals: Adult DBA/2J male mice, 6 to 8 weeks old. All animals weighed approximately 25 g when used in experiments. Each member of which received identical dosed (i.p.) of HHT.
Tumor: P388 leukemic cells induced in mice by inoculation with L1210 or P388 leukemic cells ([…]).
After P388 induced in mice 5 days, 1 mg/kg of [^3H]-HHT (100 μC/mg) was injected to mice. Volumes were 0.01 ml/g body weight. […] The key data of HHT in metabolism process are determined counts per minute (CPM) of [^3H]-HHT in organs. CPM is determined by liquid scintillation counting (LSC). The methods of LSC combined with radioactive of [^3H]-HHT can be determined using a tracer of HHT in organs. After killed animals, organs and blood were obtained from P388 mice. Organs were weighted. 10 mg of organs were digested. 10 ml of scintillation solution (which containing […]) were added to digested solution and determined at LSC. Other processes are similar to the standard method.

Consider `COC(=O)C[C@](O)(CCCC(C)(C)O)C(=O)O[C@@H]1C(OC)=C[C@]23CCCN2CCc2cc4c(cc2[C@H]13)OCO4` [[^3H]-HHT], for which the “[^3H]-HHT in blood” value was found to be 1820 CPM (1 h); 1650 CPM (2 h); 1100 CPM (4 h); 920 CPM (8 h); 428 CPM (16 h); 150 CPM (24 h).
